Key:
[1] = tested on: RAW264.7 macrophage cells; test: Time-lapse video of LRBA-associated vesicle movement after LPS; assay type: cell-based, mouse
Procedure: FIGS. 14(A) and (B) are graphs showing LPS stimulates LRBA-positive vesicles movements. RAW264.7 macrophage cells stably transfected with pBWEGFP were cultured in a glass bottom dish and put into the culture chamber. LPS was added at final concentration of 100 ng/ml. The time-lapse video of four living cells was taken at one picture per second using the Leica TCS SP2 laser scanning inverted confocal microscope with a mini cell culture chamber at 37° C. and 5% CO2. (A) Average speed of LRBA-associated vesicles; (B) Average maximum speed of LRBA-associated vesicles; The two tails and unpaired T test p values: ***p<0.001; *p<0.0138 (A); ***p<0.0005; *p<0.0117 (B).
Time lapse video was taken for living macrophage cells. RAW264.7 macrophage cells stably transfected with pBWEGFP were cultured in a glass bottom dish and put into the mini cell culture chamber at 37° C. and 5% CO2 in a Leica TCS SP2 laser scanning inverted confocal microscope. LPS was added at final concentration of 100 ng/ml. The time-lapse video of four living cells was taken at one picture per second using the Avg. timelapse interval: 1000.05 ms (1.0 Hz) (+/−8.9 ms); Initial SAC Position: 1700; Objective: 100× (magnification: 100.00×); Mag. changer: EMCCD (magnification: 1.00×); 8 inning: 1×1; Channel 1: c488em at 50 ms. Gain: 3 Intensification: 700 ND: 60 [Independent]. […]

[2] = tested on: splenocytes and bone marrow cells; test: Ex vivo culture of splenocytes and bone marrow cells with LPS; assay type: cell-based, mouse; conditions: ex vivo cell culture, 24 h LPS stimulation (1 μg/ml)
Procedure: (§1) FIG. 34(A)-(B) are graphs showing LPS regulates BAFFR in vivo and in vitro. C57BL/6J mice of 2-month age were injected intraperitoneally with LPS (5 μg/g body weight) or PBS (control). For in vitro LPS stimulation, cells from mouse spleen or bone marrow were cultured with or without LPS (1 μg/ml) for 24 hr. Cells were stained with fluorophores-conjugated BAFFR and TACI antibodies and DAPI for dead/live discrimination and analyzed with cytometry. (A) Spleocytes without LPS-P3, (B) bone marrow cells without LPS-P3. Negative gating was based on B220 negative cells, which are negative for BAFFR and TACI. Numbers other than percentage are arbitrary MFI units. All experiments were done in triplicate for in the vitro experiment and data shown is representative of two separate experiments.
(§2) To investigate whether CVID genes also respond to LPS, mice were injected intraperitoneally with LPS. Twenty-four hours later the spleen and bone marrow cells were harvested and subjected to cytometry assay.

LRBA = test: Plasma LRBA levels (ELISA) in mice stimulated with LPS; assay type: in vivo
Procedure: (A) Mice stimulated with LPS (1 μg/g body weight) for 6 hours. (B) OVA induced asthma mouse model.
(§3) (C) Asthma patients with an exacerbation or controlled symptoms; (D) Human mononuclear leukocytes stimulated with LPS (1 μg/ml). LPS was derived from Escherichia coli 0111:B4 (Sigma, St. Louis, Mo.). LRBA levels were determined by LRBA ELISA Kit using 100 μl of plasma or conditioned media in each well, following the manufacturer's protocol.
(§4) A) Mice stimulated with LPS (5 μg/g body weight) for 6 hours. (B) OVA induced asthma mouse model; (C) Asthma patients with an exacerbation or controlled symptoms; (D) Human mononuclear leukocytes stimulated with LPS (1 μg/ml). LRBA levels were determined by LRBA ELISA Kit using 100 μl of plasma or conditioned media in each well. C57BL/6J mice were injected intraperitoneally with 500 μl of 12 mg/kg (body weight) of LRBA antibody or control normal rabbit 1 gG suspended in saline three times. LPS at 7.5 mg/kg in 0.2 ml PBS i.p was followed. About 100 μl of blood was collected by submandibular venipuncture after 2 hours of LPS injection. Plasma samples were obtained by centrifugation at 3000 rpm for 15 min and used for cytokine assay. The TNFα and IL-6 concentrations were detected using the mouse CBA Th1/Th2/Th17 cytokine kit. The Phosflow Starter Kit contains Cytofix Fixation Buffer, Phosflow Perm Buffer III and Stain Buffer BSA.

[3] = tested on: Human mononuclear leukocytes; test: LRBA levels in culture supernatants of mononuclear leukocytes stimulated with LPS; assay type: cell-based; conditions: LPS 1 μg/ml
Procedure: as §3, §4

[4] = tested on: CVID receptors, B220 and TLR4; test: LPS regulates CVID receptors, B220 and TLR4 in vivo (cytometry of spleen and bone marrow cells); set-up: species or system C57BL/6J mice; conditions: for B220 Median Intensity fold / B220 Percentage fold / BAFFR Median Intensity fold / BAFFR Percentage fold / CD19 Median Intensity fold / CD19 Percentage fold / CD21 Median Intensity fold / CD21 Percentage fold / TACI Median Intensity fold / TACI Percentage fold / TLR4 Median Intensity fold / TLR4 Percentage fold: PBS vs LPS
Procedure: as §1, §2

[5] = Bone Marrow, LPS 5 μg/g i.p., 24 h

## Lipopolysaccharide [LPS]
[1]; 3 min after adding LPS (100 ng/ml) into the media
  average speed of vesicles: doubles
[1]; after 5 and 23 min of LPS (100 ng/ml)
  average speed of vesicles: slows down to original levels
[2]
  TACI on splenocytes and bone marrow cells: significantly upregulated
LRBA; high levels, upper value
  LRBA secreted into plasma upon LPS stimulation: up to 6.7 μg/L
LRBA; mice stimulated with LPS for 6 hours
  LRBA levels in plasma: significantly increased
[3]
  LRBA levels in the culture supernatants: significantly increased
[4]; [5]
  B220 Median Intensity: 2423 ± 396.6 arbitrary fluorescence intensity units
  B220 Percentage: 15.5 ± 5.1%
  BAFFR Median Intensity: 693.3 ± 84.1 arbitrary fluorescence intensity units
  BAFFR Percentage: 43.7 ± 4.9%
  CD19 Median Intensity: 1951105 arbitrary fluorescence intensity units
  CD19 Percentage: 17.9 ± 5.5%
  CD21 Median Intensity: 378 ± 53.8 arbitrary fluorescence intensity units
  CD21 Percentage: 24.5 ± 1.23%
  TACI Percentage: 1.4 ± 0.35%
  TLR4 Median Intensity: 592 ± 28.8 arbitrary fluorescence intensity units
  TLR4 Percentage: 50.9 ± 3.3%
[4]; Bone Marrow
  B220 Median Intensity fold: 0.69↑
  B220 Percentage fold: 1.02
  BAFFR Median Intensity fold: 1.58↓
  BAFFR Percentage fold: 0.81
  CD19 Median Intensity fold: 0.94
  CD19 Percentage fold: 0.83
  CD21 Median Intensity fold: 2.02↓
  CD21 Percentage fold: 1.1
  TACI Median Intensity fold: 1.03
  TACI Percentage fold: 2.16
  TLR4 Median Intensity fold: 0.97
  TLR4 Percentage fold: 1.13↓
[4]; Spleen, LPS 5 μg/g i.p., 24 h
  B220 Median Intensity: 4031.3 ± 153.2 arbitrary fluorescence intensity units
  B220 Percentage: 58.7 ± 4.5%
  BAFFR Median Intensity: 842.7 ± 73.1 arbitrary fluorescence intensity units
  BAFFR Percentage: 94.7 ± 0.92%
  CD19 Median Intensity: 1792237 arbitrary fluorescence intensity units
  CD19 Percentage: 59 ± 4.1%
  CD21 Median Intensity: 580.71 ± 56.5 arbitrary fluorescence intensity units
  CD21 Percentage: 80.9 ± 9.7%
  TACI Median Intensity: 560.7 ± 60.1 arbitrary fluorescence intensity units
  TACI Percentage: 7.9 ± 2.70%
  TLR4 Median Intensity: 502.7 ± 3.1 arbitrary fluorescence intensity units
  TLR4 Percentage: 55.7 ± 4.0%
[4]; Spleen
  B220 Median Intensity fold: 1
  B220 Percentage fold: 0.8↑
  BAFFR Median Intensity fold: 1.19↓
  BAFFR Percentage fold: 0.98
  CD19 Median Intensity fold: 1.07
  CD19 Percentage fold: 0.8↑
  CD21 Median Intensity fold: 1.45↓
  CD21 Percentage fold: 1.1
  TACI Median Intensity fold: 1.1
  TACI Percentage fold: 0.35↑
  TLR4 Median Intensity fold: 1.02
  TLR4 Percentage fold: 1.16↓

Source: patent US10654918B2, “Inflammatory disease diagnosis and methods of treatment using down-regulators of lipopolysaccharide-responsive beige-like anchor” (University of South Florida, priority 2013, dated 2020)
